# Assays:
# [1] = system: SMAD1/5/8; assay: Western blot of BMP signaling pathway in H1 cells; type: cell-based, human; details: 6 µL of 30 µM compound in 2 mL, within 24 hours of treatment, Figure 3
# Procedure: (§1) The inhibitory effect of the pyrazolecarbonyl piperazinone compounds on the BMP signaling pathway was further validated by Western blot analysis. Commercial human pluripotent stem cell line H1 was seeded in a 6-well plate at 1.5 × 10^6 cells per well in 2 mL of culture medium. After one day of culture, the medium was replaced, and 6 µL of 30 µM pyrazolecarbonyl piperazinone compound II-1 was added. Cells were treated for 12, 24, and 36 hours, after which the cells were harvested and protein samples were prepared according to the instructions of a commercial kit (Beyotime Biotechnology; Cat. No. P0013). Western blot analysis was performed as described in the literature (H. Zhang et al., 2022; N. Zhang et al., 2021). […] Table 2. Antibody Information
# [2] = system: SMAD2/3; assay: Western blot of TGF signaling pathway in H1 cells; type: cell-based, human; details: 6 µL of 30 µM compound in 2 mL, within 24 hours of treatment, Figure 3
# Procedure: as §1
# [3] = system: pluripotent stem cell H9; assay: Neural induction of H9 cells, marker gene mRNA by RNA-seq; type: cell-based, human; details: H9, increasing concentrations, day 7 and day 14, P < 0.05 t-test
# Procedure: (§2) The induction medium comprises Dulbecco's Modified Eagle Medium (DMEM), Minimum Essential Medium Non-Essential Amino Acids (MEM NEAA, Cat. No. 11140076, Thermo Fisher), 4-Hydroxy-TEMPO (50 µM), D(+)-galactose (12.5 µg/mL), vitamin E (1 µg/mL), vitamin B12 (1.2 µM), vitamin C (64 mg/L), progesterone (6.3 ng/mL), 1,4-butanediamine (23 µg/mL), luteolin (60 µM), sodium chloride (0.5 g/L), […] (13.6 µg/L), insulin (22 µg/mL), recombinant human transferrin (100 ng/mL), and the BMPR1B inhibitor of the present invention (induction medium A uses BMPR1B inhibitor II-1; induction medium B uses BMPR1B inhibitor II-13).
# (§3) Commercial human pluripotent stem cell lines H1, H9, and induced pluripotent stem cells (iPSCs) were used. The iPSCs were prepared according to the "reprogramming medium for the culture of reprogrammed iPSCs" using CD34+ cells (CN109628383A, Example 2). T25 culture flasks were coated with Matrigel (STEMCELL Technologies) and incubated at 37°C for at least one hour. Cells were seeded at 1 × 10^6 per T25 flask for expansion and passaging.
# (§4) 6-well plates were coated with 50 µg/mL poly-L-lysine (SIGMA, Cat. No. P6407) and incubated at 37°C for at least 3 hours, followed by coating with 5 µg/mL laminin (SIGMA ALDRICH, Cat. No. 12020) and further incubation at 37°C for at least 3 hours. […]
# [4] = molecular target: BMPR1B kinase (Homo sapiens, UniProt O00238); assay: Kinase activity screening (330 kinases, HTRF or ADP-Glo); type: biochemical; details: compound 2.5 mM, 25 nL in DMSO added to 5 µL reaction; Figure 1A
# Chain of BMPR1B kinase (O00238 14-502): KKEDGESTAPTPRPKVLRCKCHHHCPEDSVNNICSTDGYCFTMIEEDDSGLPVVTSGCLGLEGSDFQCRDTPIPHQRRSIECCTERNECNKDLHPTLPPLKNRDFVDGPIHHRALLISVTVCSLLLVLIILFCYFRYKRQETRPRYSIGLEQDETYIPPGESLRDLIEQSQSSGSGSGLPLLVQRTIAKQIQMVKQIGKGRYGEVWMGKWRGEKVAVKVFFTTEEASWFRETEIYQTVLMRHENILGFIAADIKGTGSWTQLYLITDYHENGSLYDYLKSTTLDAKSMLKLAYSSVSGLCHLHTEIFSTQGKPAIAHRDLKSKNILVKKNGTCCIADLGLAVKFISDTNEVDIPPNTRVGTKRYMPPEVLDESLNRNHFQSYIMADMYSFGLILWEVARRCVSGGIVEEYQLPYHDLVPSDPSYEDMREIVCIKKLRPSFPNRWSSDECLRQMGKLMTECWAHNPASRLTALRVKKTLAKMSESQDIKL
# Procedure: (§5) A total of 330 kinase candidates (15-50 nM, 2.5 µL) were mixed with compound II-1 (2.5 mM, 25 nL, prepared in DMSO) and incubated at 25 °C for 10 minutes. Then, a mixture of kinase peptide substrate (0.2 mg/mL; supplier: GenScript) and ATP (10-60 µM; supplier: Promega; product number: V915B) was added (total 2.5 µL, prepared in assay buffer), and the reaction was carried out at 25 °C for 60-120 minutes. Finally, the reaction products were quantified using HTRF1 or ADP-Glo2 methods. During the kinase activity assay, the consumption of each substrate was kept below 10%, and each kinase assay was performed in duplicate.
# [5] = molecular target: T1, TGFBR1 (Homo sapiens, UniProt P36897); assay: Kinase activity assay (HTRF or ADP-Glo); type: biochemical
# T1 sequence (P36897 34-503): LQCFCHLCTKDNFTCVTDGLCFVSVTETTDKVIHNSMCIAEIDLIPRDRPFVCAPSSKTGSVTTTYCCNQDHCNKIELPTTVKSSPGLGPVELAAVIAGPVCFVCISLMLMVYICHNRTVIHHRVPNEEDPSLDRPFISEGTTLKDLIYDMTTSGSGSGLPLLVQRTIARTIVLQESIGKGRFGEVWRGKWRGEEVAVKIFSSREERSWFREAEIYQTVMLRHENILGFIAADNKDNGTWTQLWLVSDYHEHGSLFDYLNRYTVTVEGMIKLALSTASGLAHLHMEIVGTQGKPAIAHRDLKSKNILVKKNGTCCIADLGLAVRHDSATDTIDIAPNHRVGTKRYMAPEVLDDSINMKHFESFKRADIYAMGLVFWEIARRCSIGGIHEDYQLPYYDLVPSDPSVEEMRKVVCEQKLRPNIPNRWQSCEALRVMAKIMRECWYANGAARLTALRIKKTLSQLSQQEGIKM
# Procedure: as §5
# [6] = molecular target: T2, BMPR2 (Homo sapiens, UniProt Q13873); assay: Kinase activity assay (HTRF or ADP-Glo); type: biochemical
# T2 sequence (Q13873 27-1038): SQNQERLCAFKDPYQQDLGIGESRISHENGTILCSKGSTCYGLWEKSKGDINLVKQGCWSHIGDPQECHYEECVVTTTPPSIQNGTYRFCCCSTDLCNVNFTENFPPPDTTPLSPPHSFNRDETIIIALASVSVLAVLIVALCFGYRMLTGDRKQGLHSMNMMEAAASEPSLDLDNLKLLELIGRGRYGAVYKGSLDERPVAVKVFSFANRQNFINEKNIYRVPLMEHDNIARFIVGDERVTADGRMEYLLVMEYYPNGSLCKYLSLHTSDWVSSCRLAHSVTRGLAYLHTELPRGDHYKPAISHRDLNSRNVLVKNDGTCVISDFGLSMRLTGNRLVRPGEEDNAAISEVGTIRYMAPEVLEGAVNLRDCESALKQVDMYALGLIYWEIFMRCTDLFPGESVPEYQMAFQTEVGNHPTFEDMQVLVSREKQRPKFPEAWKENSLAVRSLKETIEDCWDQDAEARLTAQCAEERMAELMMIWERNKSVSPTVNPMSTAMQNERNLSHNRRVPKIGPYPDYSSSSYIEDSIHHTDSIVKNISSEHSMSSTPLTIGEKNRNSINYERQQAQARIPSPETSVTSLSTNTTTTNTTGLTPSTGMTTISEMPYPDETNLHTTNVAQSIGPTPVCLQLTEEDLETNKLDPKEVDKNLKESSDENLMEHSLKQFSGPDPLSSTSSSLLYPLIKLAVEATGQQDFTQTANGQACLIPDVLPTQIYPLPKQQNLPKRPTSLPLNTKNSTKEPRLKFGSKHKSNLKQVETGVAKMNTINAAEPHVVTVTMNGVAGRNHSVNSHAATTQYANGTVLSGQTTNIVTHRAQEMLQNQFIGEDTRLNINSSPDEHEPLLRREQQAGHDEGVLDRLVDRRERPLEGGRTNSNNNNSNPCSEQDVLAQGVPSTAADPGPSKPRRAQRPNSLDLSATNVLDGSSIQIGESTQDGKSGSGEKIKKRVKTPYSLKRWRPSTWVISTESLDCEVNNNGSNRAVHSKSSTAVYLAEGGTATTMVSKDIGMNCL
# Procedure: as §5
# [7] = system: induced pluripotent stem cells (iPSCs); assay: Neural induction of iPSCs, marker gene mRNA by RNA-seq; type: cell-based, human; details: iPSCs vs untreated control, day 7 and day 14, dose-dependent; Figure 6
# Procedure: as §2, §3
# 6-well plates were coated with 50 µg/mL poly-L-lysine (SIGMA, Cat. No. P6407) and incubated at 37°C for at least 3 hours, followed by coating with 5 µg/mL laminin (SIGMA ALDRICH, Cat. No. 12020) and further incubation at 37°C for at least 3 hours. When pluripotent stem cells reached 70% confluency, they were digested with EDTA at 37°C for 5 minutes, and digestion was terminated using DMEM. Cells were washed, centrifuged, and reseeded in T25 flasks at 2 × 10^5 cells per flask. Induction was carried out using the aforementioned induction media: H9 cells were induced with induction medium A, while H1 cells and iPSCs were induced with induction medium B. The medium was refreshed daily until day 14.
# Samples were collected on day 7 and day 14 of induction. RNA was processed using the VAHTS Universal V8 RNA-seq Library Prep Kit for Illumina (Vazyme, NR605-01/02), and sequencing was performed on an Illumina platform. […]
# [8] = system: H1 cells; assay: Neural induction of H1 cells, marker gene mRNA by RNA-seq; type: cell-based, human; details: H1, increasing concentrations, day 7 and day 14; Figure 5
# Procedure: as §2, §3, §4
# [9] = at the same concentration as the screen
# [10] = different concentrations, up to 12.5 µM, threefold serial dilution, Figure 1B, C
SMILES,phosphorylation levels of SMAD1/5/8 [1],phosphorylation of SMAD2/3 [2],neural progenitor marker PAX6 expression [3],pluripotency marker NANOG expression [3],inhibitory activity against BMPR1B kinase [4],"inhibition of kinase activity of TGFBR1 [5, 9]","inhibition of TGFBR1 kinase [5, 10]","inhibition of kinase activity of BMPR2 [6, 9]","inhibition of BMPR2 kinase [6, 10]",neural differentiation marker VIM expression [7],neural progenitor marker Sox1 expression [7],neural progenitor marker Sox5 expression [7],glial progenitor marker gene Sox9 expression [8],neural marker gene MAP2 expression [8]
"O=C1CN(C(=O)c2n[nH]c3c2CCC3)[C@H]2CCCC[C@@H]2N1 [II-1, (4aS,8aS)-4-(1,4,5,6-tetrahydrocyclopenta[c]pyrazole-3-carbonyl)octahydroquinoxalin-2(1H)-one]",significantly suppressed,did not inhibit,corresponding increase,dose-dependent decrease,significant inhibitory activity,did not inhibit,no inhibition,did not inhibit,no inhibition,,,,,
"O=C1CN(C(=O)c2n[nH]c3ccccc23)[C@H]2CCCC[C@@H]2N1 [II-13, (4aS,8aS)-4-(1H-indazole-3-carbonyl)octahydroquinoxalin-2(1H)-one]",,,,,,,,,,significantly increased expression,significantly increased expression,significantly increased expression,dose-dependent response,dose-dependent response
